This is an account of results in US20250040542A1, “USE OF PHENYLPHENALENONES AS A SELECTIVE HERBICIDE” (UNIVERSITE DE LIMOGES, priority 2021, published 2025).

Series [1] relates to Tomato Lycopersicon esculentum var Marmande. As to the kind of experiment: Greenhouse foliar spraying on plant of interest. Type of series: in vivo. How it is done: (§1) A 5 mM stock solution was prepared in 50% v/v ethanol (96°). Next, the solution was further diluted in distilled water to obtain 10 μM for in vitro testing and 50 μM, 75 μM and 100 μM for greenhouse testing. 0.1% v/v of the surfactant IGEPAL-Co 630 was added to the solution in order to obtain a product ready for spraying on seedlings in the greenhouse.
(§2) The different seeds are grown in a greenhouse in commercial potting soil (Terreau Universel, Fertiligene). The seeds were sown in the greenhouse under controlled temperature and humidity conditions (the temperature varies between 15° C. and 30° C. depending on the season, and the relative humidity varies from 50 to 70%). 6 isolated treatments (approximately 10 sprays each) spaced 48 hours apart were carried out one week after germination.
(§3) After 7 weeks, the seedlings were harvested. The roots and aboveground parts were separated and the roots were washed with distilled water and dried on absorbent paper. These materials were then stored at −20° C.
(§4) The formulation in which the active ingredient is 50 μM Anigorufone was tested on a barley+poppy system and on tomato plants, with two treatments spaced 48 hours apart.
(§5) Tests in a greenhouse were carried out. All plants were exposed to 6 treatments with 3 increasing doses spaced 48 hours apart: C1 (50 μM or 13.6 mg/l), C2 (75 μM or 20.4 mg/l), C3 (100 μM or 27.2 mg/l). Harvesting was conducted 7 weeks after germination.

The next series concerns Turnip (Brassica napa). In words: Greenhouse foliar spraying on plant of interest. Type of series: in vivo. The note with it: 6 treatments spaced 48 hours apart, C1 50 μM, C2 75 μM, C3 100 μM, harvest 7 weeks after germination. The protocol:
as §1, §2, §3, §5

For another series, the system named is Corn (Zea mays). As to the kind of experiment: Greenhouse foliar spraying on plant of interest. The format is in vivo. The note with it: 6 treatments spaced 48 hours apart, C1 50 μM, C2 75 μM, C3 100 μM, harvest 7 weeks after germination. The protocol: as §1, §2, §3, §5
The next series deals with Wheat (Triticum sativum). As to the kind of experiment: Greenhouse foliar spraying on plant of interest. The format is in vivo. The note with it: 6 treatments spaced 48 hours apart, C1 50 μM, C2 75 μM, C3 100 μM, harvest 7 weeks after germination. The protocol: as §1, §2, §3, §5
Series [2] has as its system Sunflower (Helianthus annuus). As to the kind of experiment: Greenhouse foliar spraying on plant of interest. The format is in vivo. The note with it: 6 treatments spaced 48 hours apart. How it is done: as §1, §2, §3, §5
Another series concerns Onion (Allium cepa). As to the kind of experiment: Greenhouse foliar spraying on plant of interest. The format is in vivo. The note with it: 6 treatments spaced 48 hours apart, C1 50 μM, C2 75 μM, C3 100 μM, harvest 7 weeks after germination. The protocol:
as §1, §2, §3, §5

Series [3] relates to Spinach (Spinacia oleracea). In words: Greenhouse foliar spraying on plant of interest. The format is in vivo. The note with it: 6 treatments spaced 48 hours apart, C1 50 μM, C2 75 μM, C3 100 μM, harvest 7 weeks after germination. The protocol:
as §1, §2, §3, §5

Series [4] can be described thus: Photodegradation test, exposed to sunlight. Type of series: physicochemical. The note with it: 100 μM in distilled water. The protocol:
A photodegradation test was conducted on 100 μM anigorufone exposed to sunlight. An anigorufone solution was prepared at the studied dose (100 μM) from a stock solution in 50 ml of distilled water in glass flasks. The flasks were placed outside and exposed to full sunlight. The experiment was carried out three times in June 2022 under light conditions corresponding to sunny/partially clear skies. 1 ml of the solution was run through UV-Vis spectrometry and photodegradation was tracked by the decrease in absorbance at 370 nm. […]

The test system of series [5] is Dandelion (Taraxacum officinale). In words: Greenhouse foliar spraying on weed. The note with it: 6 treatments spaced 48 hours apart, C1 50 μM, C2 75 μM, C3 100 μM, harvest 7 weeks after germination; ranking among 8 weeds. Type of series: in vivo. Also noted: key: least resistant +; most resistant ++++++++. The protocol: as §1, §2, §3, §5
Another series concerns Fishing worms (maggots). As to the kind of experiment: Toxicity test on fishing worms (maggots). Type of series: in vivo. The protocol: Fishing worms (maggots) were spray treated with 100 μM (27.2 mg/L) anigorufone. 30 fishing worms were cultured per petri dish and 10 sprays were performed per dish. The fishing worms were cultured under photoperiod conditions (16 h light/8 h dark); 8000 Lux; 22° C.). The experiment was conducted three times. […]

Another series deals with Poppy (Papaver rhoeas). As to the kind of experiment: Greenhouse foliar spraying on weed. Also noted: key to Resistance (degree of resistance of the weed to the treatments): least resistant +; most resistant ++++++++. The format is in vivo. The protocol:
as §1, §2, §3, §4
Tests in a greenhouse were carried out. All plants were exposed to 6 treatments with 3 increasing doses spaced 48 hours apart: C1 (50 μM or 13.6 mg/l), C2 (75 μM or 20.4 mg/l), C3 (100 μM or 27.2 mg/l). […]

On to `O=C1C(O)=Cc2cccc3ccc(-c4ccccc4)c1c23` [Anigorufone, 2-hydroxy-9-phenylphenalenone], for which the “growth of tomatoes compared to the control lot” value in [1] (50 μM, two treatments spaced 48 hours apart, foliar spraying) is listed as “does not affect their growth”. Moreover, in [1] (50 μM, two treatments, two months after treatment, compared to untreated plants), the “growth of tomato plants two months after treatment” value was “normal growth”. The effect on tomato result in series [1] (6 treatments spaced 48 hours apart, C1 50 μM, C2 75 μM, C3 100 μM, harvest 7 weeks after germination) is listed as “no effect”. The effect on turnip result with Turnip (Brassica napa) is on record as “no effect”. Moreover, the effect on corn entry in the series on Corn (Zea mays) is given as “no effect”. Further, in the series with Wheat (Triticum sativum), the effect on wheat entry was “no effect”. Also, the effect on sunflower entry in [2] (C1 50 μM, C2 75 μM, C3 100 μM, harvest 7 weeks after germination) is listed as “no effect”. The flowering of sunflowers result in series [2] (treated with C1 (50 μM) and C2 (75 μM)) is listed as “flowering induction”. Besides, the effect on onion result with Onion (Allium cepa) was “no effect”. Further, in series [3], the effect on spinach result is reported as “no effect”. Also, the photodegradation result in series [4] (after 2 weeks) was “degraded almost completely”. Moreover, the persistent molecules in series [4] (after 72 hours, absorbance at 370 nm) is 30-40%. In addition, the “Resistance (degree of resistance of the weed to the treatments)” value is listed as “++++++++” in [5] and “+” in the series on Poppy (Papaver rhoeas) (6 treatments spaced 48 hours apart, C1 50 μM, C2 75 μM, C3 100 μM, harvest 7 weeks after germination, ranking among 8 weeds). In the series on Fishing worms (maggots) (spray treated with 100 μM (27.2 mg/L), 10 sprays per dish, 30 worms per dish), the “viability rate of the maggots compared to the control conditions” value was “remains constant”. For the same compound, in the series on Fishing worms (maggots) (tested at 100 μM (27.2 mg/L), spray), the “effects on fishing worms” value is “no effects”. The “herbicidal effect on poppy” value in the series on Poppy (Papaver rhoeas) (50 μM, two treatments spaced 48 hours apart, foliar spraying, 17-day-old seedlings, barley+poppy system) is reported as “dead”.
